According to article PMC10175918 (Communications Biology, 2023):
Like-named read-outs stand apart in the source and are kept apart here.

What was measured:
Assay in all cases: TGFα-shedding assay-based GPCR screening with chimeric Gα subunit proteins
Type in all cases: cell-based
348 GPCRs [1] = target: T1, 348 GPCRs (Homo sapiens, UniProt P25025)
T1 sequence (P25025 1-360): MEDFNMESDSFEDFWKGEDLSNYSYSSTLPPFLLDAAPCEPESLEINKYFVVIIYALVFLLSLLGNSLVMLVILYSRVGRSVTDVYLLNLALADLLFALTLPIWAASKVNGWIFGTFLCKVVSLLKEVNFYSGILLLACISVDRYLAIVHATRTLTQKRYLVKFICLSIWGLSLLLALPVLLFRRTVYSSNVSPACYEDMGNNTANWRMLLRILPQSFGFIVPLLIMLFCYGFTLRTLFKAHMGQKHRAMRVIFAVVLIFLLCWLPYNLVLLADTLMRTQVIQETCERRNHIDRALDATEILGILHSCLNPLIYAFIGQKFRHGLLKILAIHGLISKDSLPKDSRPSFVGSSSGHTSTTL

348 GPCRs [2] = target: T2, 348 GPCRs (Homo sapiens, UniProt P29371); conditions: 10µM, Favipiravir 100μM
T2 construct: expressed in transfected cells; host or cells: HEK293A
T2 sequence (P29371 1-465): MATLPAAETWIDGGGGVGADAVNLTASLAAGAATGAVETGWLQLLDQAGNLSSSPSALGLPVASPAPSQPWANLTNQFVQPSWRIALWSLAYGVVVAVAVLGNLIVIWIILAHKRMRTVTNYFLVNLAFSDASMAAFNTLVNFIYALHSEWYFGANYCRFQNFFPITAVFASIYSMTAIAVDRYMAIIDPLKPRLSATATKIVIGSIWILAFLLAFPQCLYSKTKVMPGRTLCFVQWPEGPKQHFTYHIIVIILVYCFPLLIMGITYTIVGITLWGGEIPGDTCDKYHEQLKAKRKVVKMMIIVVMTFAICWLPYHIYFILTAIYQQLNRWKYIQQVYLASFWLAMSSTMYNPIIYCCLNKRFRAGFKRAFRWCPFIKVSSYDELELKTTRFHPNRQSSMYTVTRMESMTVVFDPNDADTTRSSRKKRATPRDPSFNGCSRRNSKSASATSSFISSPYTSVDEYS

348 GPCRs [3] = target: T3, 348 GPCRs (Homo sapiens, UniProt P50052); conditions: 10µM, Favipiravir 100μM
T3 construct: expressed in transfected cells; host or cells: HEK293A
T3 sequence (P50052 1-363): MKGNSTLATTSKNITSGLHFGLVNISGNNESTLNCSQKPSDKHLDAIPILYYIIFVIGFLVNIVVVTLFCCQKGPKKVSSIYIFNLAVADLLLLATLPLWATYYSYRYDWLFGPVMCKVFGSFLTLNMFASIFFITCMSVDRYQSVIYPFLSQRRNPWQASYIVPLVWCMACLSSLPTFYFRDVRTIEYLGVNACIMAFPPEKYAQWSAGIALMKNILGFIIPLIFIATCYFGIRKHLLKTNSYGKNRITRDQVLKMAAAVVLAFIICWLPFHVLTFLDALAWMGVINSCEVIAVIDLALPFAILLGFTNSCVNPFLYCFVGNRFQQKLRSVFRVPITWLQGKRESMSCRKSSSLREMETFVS

348 GPCRs [4] = target: T4, 348 GPCRs (Homo sapiens, UniProt P35410)
T4 construct: expressed in transfected cells; host or cells: HEK293A
T4 sequence (P35410 1-378): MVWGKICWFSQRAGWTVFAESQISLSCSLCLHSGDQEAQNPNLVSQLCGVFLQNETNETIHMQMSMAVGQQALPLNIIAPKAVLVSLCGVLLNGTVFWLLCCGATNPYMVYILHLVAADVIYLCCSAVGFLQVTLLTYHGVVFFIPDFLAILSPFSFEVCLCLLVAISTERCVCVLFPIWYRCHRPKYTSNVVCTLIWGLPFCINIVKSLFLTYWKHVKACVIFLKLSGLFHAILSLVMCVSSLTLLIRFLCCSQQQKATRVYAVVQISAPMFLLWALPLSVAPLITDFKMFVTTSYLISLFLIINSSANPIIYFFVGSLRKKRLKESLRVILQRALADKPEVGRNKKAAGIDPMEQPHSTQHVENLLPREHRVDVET

348 GPCRs [5] = target: T5, 348 GPCRs (Homo sapiens, UniProt P34995); conditions: 10µM, Favipiravir 100μM
T5 construct: expressed in transfected cells; host or cells: HEK293A
T5 sequence (P34995 1-402): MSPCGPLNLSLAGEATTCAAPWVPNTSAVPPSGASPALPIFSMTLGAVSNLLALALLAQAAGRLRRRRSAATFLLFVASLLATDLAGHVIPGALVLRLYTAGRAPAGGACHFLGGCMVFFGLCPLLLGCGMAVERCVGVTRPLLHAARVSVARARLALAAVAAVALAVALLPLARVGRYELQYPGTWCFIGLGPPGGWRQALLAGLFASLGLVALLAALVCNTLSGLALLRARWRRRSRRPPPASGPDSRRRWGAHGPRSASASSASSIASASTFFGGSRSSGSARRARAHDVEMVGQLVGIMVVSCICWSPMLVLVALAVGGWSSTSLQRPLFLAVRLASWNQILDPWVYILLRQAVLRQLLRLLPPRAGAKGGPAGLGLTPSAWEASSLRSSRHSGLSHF

348 GPCRs [6] = target: 348 GPCRs (Homo sapiens, UniProt P46093)
348 GPCRs [7] = target: 348 GPCRs (Homo sapiens, UniProt P28221); conditions: 10µM, Favipiravir 100μM
348 GPCRs [8] = target: T6, 348 GPCRs (Homo sapiens, UniProt Q8IZ08); conditions: 10µM, Favipiravir 100μM
T6 construct: expressed in transfected cells; host or cells: HEK293A

[9] = GPCR CXCR2 (C-X-C motif chemokine receptor 2), read-out: % GPCR activation compared to TPA
[10] = NK3 (tachykinin receptor 3), read-out: % GPCR activation compared to TPA
[11] = AGTR2 (angiotensin II receptor, type 2), read-out: % GPCR activation compared to TPA
[12] = GPCR MAS1L (MAS1 oncogene-like), read-out: % GPCR activation compared to TPA
[13] = EP1 (prostaglandin E receptor 1), read-out: % GPCR activation compared to TPA
[14] = GPCR GPR4 (G Protein-Coupled Receptor 4), read-out: % GPCR activation compared to TPA
[15] = 5-HT1D (5-hydroxytryptamine receptor 1D), read-out: % GPCR activation compared to TPA
[16] = GPR135 (G Protein-Coupled Receptor 135), read-out: % GPCR activation compared to TPA
[17] = read-out: % GPCR activation compared to TPA, GPCR CXCR2 (C-X-C motif chemokine receptor 2)
[18] = read-out: % GPCR activation compared to TPA, NK3 (tachykinin receptor 3)
[19] = read-out: % GPCR activation compared to TPA, AGTR2 (angiotensin II receptor, type 2)
[20] = read-out: % GPCR activation compared to TPA, GPCR MAS1L (MAS1 oncogene-like)
[21] = read-out: % GPCR activation compared to TPA, EP1 (prostaglandin E receptor 1)
[22] = read-out: % GPCR activation compared to TPA, GPCR GPR4 (G Protein-Coupled Receptor 4)
[23] = read-out: % GPCR activation compared to TPA, 5-HT1D (5-hydroxytryptamine receptor 1D)
[24] = read-out: % GPCR activation compared to TPA, GPR135 (G Protein-Coupled Receptor 135)

348 GPCRs (Homo sapiens, UniProt P46093), sequence (P46093 whole entry): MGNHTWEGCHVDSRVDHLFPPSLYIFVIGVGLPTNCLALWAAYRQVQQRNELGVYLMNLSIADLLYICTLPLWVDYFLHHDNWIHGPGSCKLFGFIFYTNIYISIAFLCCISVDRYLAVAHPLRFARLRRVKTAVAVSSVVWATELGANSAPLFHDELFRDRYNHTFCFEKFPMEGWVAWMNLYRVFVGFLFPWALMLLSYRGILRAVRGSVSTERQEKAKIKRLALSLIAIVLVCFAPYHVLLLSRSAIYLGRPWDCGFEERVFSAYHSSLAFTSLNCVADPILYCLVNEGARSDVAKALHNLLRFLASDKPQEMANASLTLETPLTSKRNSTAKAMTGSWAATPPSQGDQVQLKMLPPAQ
348 GPCRs (Homo sapiens, UniProt P28221), sequence (P28221 whole entry): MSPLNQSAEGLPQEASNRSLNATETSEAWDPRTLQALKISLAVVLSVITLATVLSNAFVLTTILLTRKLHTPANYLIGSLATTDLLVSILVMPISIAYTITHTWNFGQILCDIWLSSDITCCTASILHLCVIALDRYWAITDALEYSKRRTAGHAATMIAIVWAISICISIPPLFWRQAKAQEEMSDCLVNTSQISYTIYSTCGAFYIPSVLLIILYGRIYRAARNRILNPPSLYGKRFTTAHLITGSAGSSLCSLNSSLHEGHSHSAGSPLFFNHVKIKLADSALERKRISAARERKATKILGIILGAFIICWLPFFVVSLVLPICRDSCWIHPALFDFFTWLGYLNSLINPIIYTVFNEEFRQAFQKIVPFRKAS
T6 sequence (Q8IZ08 whole entry): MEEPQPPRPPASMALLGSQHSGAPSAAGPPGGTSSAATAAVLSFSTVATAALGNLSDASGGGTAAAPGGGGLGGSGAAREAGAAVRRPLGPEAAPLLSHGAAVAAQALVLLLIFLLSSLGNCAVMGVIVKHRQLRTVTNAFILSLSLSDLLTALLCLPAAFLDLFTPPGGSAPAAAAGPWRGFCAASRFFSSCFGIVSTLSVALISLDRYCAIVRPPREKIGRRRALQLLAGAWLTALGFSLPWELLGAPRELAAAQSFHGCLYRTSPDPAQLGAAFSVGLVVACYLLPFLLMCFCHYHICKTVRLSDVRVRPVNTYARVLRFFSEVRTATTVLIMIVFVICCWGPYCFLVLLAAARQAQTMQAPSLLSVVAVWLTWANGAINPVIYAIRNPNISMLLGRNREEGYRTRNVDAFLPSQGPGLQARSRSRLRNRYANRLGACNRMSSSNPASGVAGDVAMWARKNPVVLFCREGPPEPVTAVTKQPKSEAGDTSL

Row | activation at 10 µM (348 GPCRs [1]; [9]) | activation at 10 µM (348 GPCRs [2]; [10]) | activation at 10 µM (348 GPCRs [3]; [11]) | activation at 10 µM (348 GPCRs [4]; [12]) | activation at 100 µM (348 GPCRs [5]; [13]) | activation at 10 µM (348 GPCRs [6]; [14]) | activation at 100 µM (348 GPCRs [7]; [15]) | activation at 100 µM (348 GPCRs [8]; [16]) | activation at 100 µM (348 GPCRs [1]; GPCR CXCR2 (C-X-C motif chemokine receptor 2), 100μM, read-out: % GPCR activation compared to TPA) | activation at 100 µM (348 GPCRs [4]; GPCR MAS1L (MAS1 oncogene-like), 100μM, read-out: % GPCR activation compared to TPA) | activation at 100 µM (348 GPCRs [6]; GPCR GPR4 (G Protein-Coupled Receptor 4), 100μM, read-out: % GPCR activation compared to TPA) | SMILES | activation at 10 µM (348 GPCRs [1]; [17]) | activation at 10 µM (348 GPCRs [2]; [18]) | activation at 10 µM (348 GPCRs [3]; [19]) | activation at 10 µM (348 GPCRs [4]; [20]) | activation at 100 µM (348 GPCRs [5]; [21]) | activation at 10 µM (348 GPCRs [6]; [22]) | activation at 100 µM (348 GPCRs [7]; [23]) | activation at 100 µM (348 GPCRs [8]; [24])
1 | 0.398% | -0.811% | 0.337% | 3.15% | -1.84% | -0.661% | -9.87% | -1.68% | – | – | – | N#C[C@@]1(c2ccc3c(N)ncnn23)O[C@H](CO)[C@@H](O)[C@H]1O [GS441524] | – | – | – | – | – | – | – | –
2 | – | -0.777% | 0.741% | – | -1.04% | – | -9.38% | -0.994% | -0.272% | -0.101% | -3.16% | NC(=O)c1nc(F)cnc1O [favipiravir, 6-fluoro-3-hydroxy-2-pyrazinecarboxamide] | – | – | – | – | – | – | – | –

Continued, compound first:

Row | SMILES | activation at 10 µM (348 GPCRs [1]; [9]) | activation at 10 µM (348 GPCRs [2]; [10]) | activation at 10 µM (348 GPCRs [3]; [11]) | activation at 10 µM (348 GPCRs [4]; [12]) | activation at 100 µM (348 GPCRs [5]; [13]) | activation at 10 µM (348 GPCRs [6]; [14]) | activation at 100 µM (348 GPCRs [7]; [15]) | activation at 100 µM (348 GPCRs [8]; [16]) | activation at 100 µM (348 GPCRs [1]; GPCR CXCR2 (C-X-C motif chemokine receptor 2), 100μM, read-out: % GPCR activation compared to TPA) | activation at 100 µM (348 GPCRs [4]; GPCR MAS1L (MAS1 oncogene-like), 100μM, read-out: % GPCR activation compared to TPA) | activation at 100 µM (348 GPCRs [6]; GPCR GPR4 (G Protein-Coupled Receptor 4), 100μM, read-out: % GPCR activation compared to TPA) | activation at 10 µM (348 GPCRs [1]; [17]) | activation at 10 µM (348 GPCRs [2]; [18]) | activation at 10 µM (348 GPCRs [3]; [19]) | activation at 10 µM (348 GPCRs [4]; [20]) | activation at 100 µM (348 GPCRs [5]; [21]) | activation at 10 µM (348 GPCRs [6]; [22]) | activation at 100 µM (348 GPCRs [7]; [23]) | activation at 100 µM (348 GPCRs [8]; [24])
3 | CCC(CC)COC(=O)[C@H](C)N[P@](=O)(OC[C@H]1O[C@@](C#N)(c2ccc3c(N)ncnn23)[C@H](O)[C@@H]1O)Oc1ccccc1 [remdesivir] | – | – | – | – | – | – | – | – | – | – | – | 2.41% | -0.179% | 0.676% | 0.269% | 0.488% | -1.37% | -5.77% | -2.35%
4 | CC(C)OC(=O)[C@H](C)N[P@](=O)(OC[C@H]1O[C@@H](n2ccc(=O)[nH]c2=O)[C@](C)(F)[C@@H]1O)Oc1ccccc1 [sofosbuvir] | – | – | – | – | – | – | – | – | – | – | – | -1.43% | -1.94% | 1.67% | 0.457% | -0.685% | 1.94% | 0.836% | -2.6%
5 | CC(C)C(=O)OC[C@H]1O[C@@H](n2ccc(NO)nc2=O)[C@H](O)[C@@H]1O [molnupiravir] | 0.926% | -1.59% | 0.537% | 0.3% | 0.204% | -3.97% | 0.705% | -1.53% | – | – | – | – | – | – | – | – | – | – | –
